# Literature values as cited in patent US5876715A, “Antibodies that bind novel carbohydrate ligands (myelorollins) that cause E-selectin dependent cell rolling, and uses thereof” (The Biomembrane Institute, priority 1996, dated 1999).
# Key:
# [1] = rat, IgG immune complex lung injury; Mulligan et al. 1993; cited from earlier work
# [2] = tested on: E-selectin expressing CHO cells; conditions: shear stress of 0.78 dyne/cm^2; J. Immunol. 154:5356-5366 (1995); cited from earlier work
substance,measurement,setting,value
IV^3 NeuAcIII^3 FucnLc4 Cer [SLe^x],effect against inflammatory vascular injury,[1],provides protective effects against inflammatory vascular injury
same,tethering of E-selectin expressing CHO cells,[2],tethered
